# Data from article PMC9882606, “Rationally designed inhibitors of the Musashi protein-RNA interaction by hotspot mimicry” (Research Square, 2023).
# Columns and labels:
# MSI1 RRM1 = target: T1, MSI1 RRM1 (Homo sapiens, UniProt O43347); test: Differential Scanning Fluorimetry (DSF); assay type: binding; settings: increasing compound dose
# T1 sequence (O43347 20-110 limits assumed): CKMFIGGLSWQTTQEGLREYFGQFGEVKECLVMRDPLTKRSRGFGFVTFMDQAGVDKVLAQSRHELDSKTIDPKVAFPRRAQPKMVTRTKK
# Text: Out of concern that R12–7’s activity may be associated with compound aggregation, we elected to continue with optimization of R12–8 (Figure 2b).
# To further characterize R12–8–44–3, we applied differential scanning fluorimetry (DSF) as an orthogonal secondary assay. […] While this could be a sign of apparent inhibition occurring through aggregation, there are also legitimate inhibitors that reduce their target protein’s melting temperature. An alternate explanation could simply be that MSI1’s folding landscape is not simply two-state, and that a partially-folded intermediate stabilized by R12–8–44–3 affects the unfolding transition.
# MSI2 [1] = target: T2, MSI2 (Homo sapiens, UniProt Q96DH6); test: Cellular thermal shift assay (CETSA) in K562 cells; assay type: cell-based; settings: K562, 3 hours, 20 μM or 40 μM, heated to 49 °C
# T2 sequence (Q96DH6 whole entry): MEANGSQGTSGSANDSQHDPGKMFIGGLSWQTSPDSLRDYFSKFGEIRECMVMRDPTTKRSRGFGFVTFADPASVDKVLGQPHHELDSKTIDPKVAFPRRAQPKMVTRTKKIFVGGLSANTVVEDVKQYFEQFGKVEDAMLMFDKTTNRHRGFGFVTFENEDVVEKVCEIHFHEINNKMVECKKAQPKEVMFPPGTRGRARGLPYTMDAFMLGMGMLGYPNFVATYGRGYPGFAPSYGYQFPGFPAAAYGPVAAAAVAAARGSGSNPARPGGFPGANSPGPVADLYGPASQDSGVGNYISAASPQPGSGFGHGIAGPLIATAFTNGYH
# Text: (§1) To explore the effect of these MSI2 inhibitors in a cancer-relevant cellular context, we selected two MSI2-dependent cancer cell lines: non-small cell lung cancer cell line PC9 and leukemia cell line K562 [73, 98–101]. Upon treatment of PC9 cells with Ro, R12–8–44–3, or negative control R12-neg, we found at multiple time points that cellular MSI2 protein levels were unchanged (Figure 6a). To confirm target engagement, we therefore adapted the cellular thermal shift assay (CETSA). […]
# (§2) Figure 6: Direct cellular engagement of MSI2 interaction by R12–44–3. […] MSI2 protein abundance was then quantified and normalized to untreated sample. One representative image is shown; quantification is presented as the average ± S.E.M. from 3 independent replicates. […] Cells were briefly incubated at temperatures between 40 °C to 67 °C, then centrifuged and the amount of MSI2 remaining in the soluble fraction was quantified by Western blotting. […] One representative image is shown; quantification is presented as the average ± S.E.M. from 3 independent replicates, normalized first to beta-actin and then to DMSO control. […] One representative image is shown; quantification is presented as the average ± S.E.M. from 3 independent replicates, normalized first to beta-actin and then to DMSO control. […]
# PC9 cells [2] = test: CellTiter-Blue cell viability, PC9; assay type: cell-based, human; settings: PC9, 3 days, dose-response
# Description: Figure 7: Cellular characterization of MSI2 inhibition by R12–8–44–3. (A) Quantification of mRNA immunoprecipitation (RIP) results. Cells were treated with 10 μM of the indicated compounds for 8 hours. After immunoprecipitation with anti-MSI2, mRNA targets were quantified. The amount of each target mRNA in the pulldown was calculated relative to the input, and results from all targets were normalized to PTP4A1. Treating cells with R12–8–44–3 disrupted the interaction with all four cognate mRNAs (PTP4A, SMAD3, EGFR, and MSI2). Data are presented as the average ± S.E.M. from at least 3 independent replicates. […] Cells were treated with indicated compounds at two concentrations (5 μM and 20 μM) for 48 hours, then protein levels of relevant MSI2 targets were determined (EGFR, SMAD3, and MSI2). One representative image is shown; quantification is presented as the average ± S.E.M. from at least 3 independent replicates, normalized first to beta-actin and then to DMSO-treated cells. (C) Cell viability dose-response quantified by CellTiter-Blue after 3 days (left) and cell proliferation with 10μM of compounds quantified by clonogenic assay after 7 days (right). […] (D) Cell viability quantified by clonogenic assay of PC9 cell line after 7-day treatment with 2 nM osimertinib (osi alone), osimertinib with 10 μM R12–8–44–3, or osimertinib with 10 μM R12-neg. […]
# PC9 cells [3] = test: CellTiter-Blue, combination with osimertinib, PC9; assay type: cell-based, human; settings: PC9, 3-day treatment, osimertinib with 10 μM compound vs osimertinib alone
# Text: With respect to non-small cell lung cancer (NSCLC) specifically, overexpression of MSI2 has been identified as a mechanism underlying resistance to inhibitors of EGFR – and more importantly, depletion of MSI2 by RNA knockdown increased sensitivity to the third-generation EGFR inhibitor osimertinib both in vitro and in vivo [73, 74]. Despite lack of sensitivity to R12–8–44–3 alone, we therefore hypothesized that R12–8–44–3 would sensitize PC9 cells (an EGFR-mutant lung cancer cell line) to osimertinib.
# MSI2 [4] = target: T2, MSI2; test: Cellular thermal shift assay (CETSA) in PC9 cells; assay type: cell-based; design: endogenous in cells; host or cells: PC9; settings: PC9, 3 hours, 20 μM or 40 μM, heated to 49 °C
# Text: as §1, §2
smiles,measurement,setting,value
Cc1cc(C(=O)OCc2nc(N)c3c(C)c(C)sc3n2)c(N)cc1F [R12–8–44–3],change of the protein's melting temperature,MSI1 RRM1,monotonically decreased MSI1’s melting temperature
same,soluble MSI2 after heating (CETSA),MSI2 [1],confers protection against thermal-induced aggregation
same,cell viability (CellTiter-Blue),PC9 cells [2],no effect on cell growth/survival
same,cell viability (CellTiter-Blue) in combination with osimertinib,PC9 cells [3],small but statistically significant decrease in cell viability
same,soluble MSI2 after heating (CETSA),MSI2 [4],confers protection against thermal-induced aggregation
